Experimental data: patent publication US20160355530A1, “HEPATITIS C INHIBITORS AND USES THEREOF” (AbbVie Inc., priority 2010, published 2016)
Read-outs that look alike come from different tables or passages of the source.

Legend:
[1] = test system: chimeric replicon with genotype 2b NS5B; test: microbe, parasite or virus in culture; format: cell-based, HCV genotype 2b; details: Hepatitis C virus, read-out: 2b chimera 5% FBS EC50
[2] = test system: chimeric replicon with 2a-J6CF-derived NS5B; test: microbe, parasite or virus in culture; format: cell-based, HCV genotype 2a; details: Hepatitis C virus, read-out: 2a chimera 5% FBS EC50
[3] = test system: HCV 1b-BB7 subgenomic replicon; test: microbe, parasite or virus in culture; format: cell-based, HCV genotype 1b; details: Hepatitis C virus, stable replicon
[4] = molecular target: T1, HCV NS5B polymerase 1a-H77-C316Y (Hepatitis C virus genotype 1a, UniProt P27958, C2736Y); test: biochemical; parameters: species or system HCV genotype 1a
T1 construct: six-histidine tag; made in house; host or cells: E. coli
T1 sequence (P27958 2421-2990 C2736Y): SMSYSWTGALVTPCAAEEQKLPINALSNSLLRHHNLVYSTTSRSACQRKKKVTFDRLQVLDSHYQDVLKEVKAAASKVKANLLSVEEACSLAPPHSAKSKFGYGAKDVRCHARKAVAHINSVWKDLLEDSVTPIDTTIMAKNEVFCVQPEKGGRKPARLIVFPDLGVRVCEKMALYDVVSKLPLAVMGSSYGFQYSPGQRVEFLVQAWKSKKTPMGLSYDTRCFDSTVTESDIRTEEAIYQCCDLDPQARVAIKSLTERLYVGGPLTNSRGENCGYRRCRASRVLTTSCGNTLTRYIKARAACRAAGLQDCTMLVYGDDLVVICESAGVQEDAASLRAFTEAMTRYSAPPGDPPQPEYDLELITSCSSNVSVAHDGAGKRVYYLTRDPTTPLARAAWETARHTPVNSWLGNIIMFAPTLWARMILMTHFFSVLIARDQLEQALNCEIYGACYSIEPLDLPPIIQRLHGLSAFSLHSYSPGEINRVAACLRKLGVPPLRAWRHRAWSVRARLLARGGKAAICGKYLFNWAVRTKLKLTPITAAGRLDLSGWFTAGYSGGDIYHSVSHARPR
How it was run: (§1)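 Recombinant NS5B (residues 1–570, His-tagged, E. coli-expressed) copied 5 nM of a 2.1 kb HCV 1b negative-strand 3′-end RNA template with 20 μM CTP, 20 μM ATP and 0.284 μM [3H]UTP for 3 h at 30 °C. Spermine-precipitated RNA was filter-captured and counted, and IC50 was fitted by nonlinear regression.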

[5] = test system: HCV NS5B polymerase 1a-H77-C316Y; test: biochemical; parameters: species or system HCV genotype 1a; details: ratio of enzyme IC50s, 1a H77-C316Y / 1a H77
How it was run: as §1

[6] = molecular target: T2, HCV NS5B polymerase 1a-H77 (Hepatitis C virus genotype 1a, UniProt P27958); test: biochemical; parameters: species or system HCV genotype 1a; details: enzyme, strain 1a H77; read-out: HCV Polymerase Strain 1a H77 IC50
T2 construct: six-histidine tag; made in house; host or cells: E. coli
T2 sequence (P27958 2421-2990): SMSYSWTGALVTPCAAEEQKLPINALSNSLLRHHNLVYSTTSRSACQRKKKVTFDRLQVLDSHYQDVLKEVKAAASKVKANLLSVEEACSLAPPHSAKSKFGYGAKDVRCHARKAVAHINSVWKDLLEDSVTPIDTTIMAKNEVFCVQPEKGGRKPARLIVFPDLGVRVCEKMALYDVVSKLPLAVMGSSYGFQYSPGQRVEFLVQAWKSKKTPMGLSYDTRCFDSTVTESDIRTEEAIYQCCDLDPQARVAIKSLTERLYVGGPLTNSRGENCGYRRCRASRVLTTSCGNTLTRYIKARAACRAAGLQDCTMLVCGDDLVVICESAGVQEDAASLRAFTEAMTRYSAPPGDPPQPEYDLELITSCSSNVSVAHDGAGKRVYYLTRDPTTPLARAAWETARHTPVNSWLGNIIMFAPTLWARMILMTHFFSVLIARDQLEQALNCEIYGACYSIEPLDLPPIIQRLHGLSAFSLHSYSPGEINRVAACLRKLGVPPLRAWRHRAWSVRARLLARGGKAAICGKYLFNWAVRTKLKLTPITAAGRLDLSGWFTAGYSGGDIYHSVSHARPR
How it was run: as §1

[7] = molecular target: T3, HCV NS5B polymerase 1b BK strain (Hepatitis C virus genotype 1b, UniProt P26663); test: HCV NS5B polymerase enzymatic inhibition assay, strain 1b BK; format: biochemical; details: enzyme, strain 1b BK; read-out: HCV Polymerase Strain 1b BK IC50
T3 construct: six-histidine tag; made in house; host or cells: E. coli
T3 sequence (P26663 2420-2989): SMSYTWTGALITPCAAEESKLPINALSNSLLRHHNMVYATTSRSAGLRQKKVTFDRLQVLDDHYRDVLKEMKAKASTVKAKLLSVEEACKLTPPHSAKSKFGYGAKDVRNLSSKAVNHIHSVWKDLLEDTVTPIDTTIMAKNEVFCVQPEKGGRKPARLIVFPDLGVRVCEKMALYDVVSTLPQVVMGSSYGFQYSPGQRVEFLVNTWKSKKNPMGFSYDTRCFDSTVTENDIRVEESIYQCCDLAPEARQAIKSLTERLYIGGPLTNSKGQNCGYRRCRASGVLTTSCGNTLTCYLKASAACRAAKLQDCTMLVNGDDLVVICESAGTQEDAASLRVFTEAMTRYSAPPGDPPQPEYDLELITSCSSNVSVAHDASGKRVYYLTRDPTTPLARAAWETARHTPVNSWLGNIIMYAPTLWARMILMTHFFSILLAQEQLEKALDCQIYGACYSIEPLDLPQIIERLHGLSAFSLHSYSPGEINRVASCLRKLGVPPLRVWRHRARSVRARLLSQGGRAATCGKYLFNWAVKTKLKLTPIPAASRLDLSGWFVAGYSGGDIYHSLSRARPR
How it was run: as §1

[8] = test system: HCV 1a-H77 subgenomic replicon; test: microbe, parasite or virus in culture; format: cell-based, HCV genotype 1a; details: Hepatitis C virus, stable replicon
[9] = test system: chimeric replicon with genotype 4a NS5B; test: microbe, parasite or virus in culture; format: cell-based, HCV genotype 4a; details: Hepatitis C virus, read-out: 4a chimera 5% FBS EC50
[10] = test system: chimeric replicon with genotype 3a NS5B; test: microbe, parasite or virus in culture; format: cell-based, HCV genotype 3a; details: Hepatitis C virus, read-out: 3a chimera 5% FBS EC50
[11] = strain 1b BB7, 5% FBS + 40% human plasma, read-out: 1b BB7 5% FBS + 40% Human Plasma EC50
[12] = strain 1b BB7, 5% FBS, no human plasma, read-out: 1b BB7 5% FBS EC50
[13] = strain 1b BB7, 5% FBS, read-out: 1b BB7 5% FBS EC50
[14] = 5% FBS, absence of human plasma, read-out: Stable Replicon 1a H77 5% FBS EC50
[15] = strain 1a H77, 5% FBS + 40% human plasma, read-out: 1a H77 5% FBS + 40% Human Plasma EC50
[16] = strain 1a H77, 5% FBS, no human plasma, read-out: 1a H77 5% FBS EC50
[17] = strain 1a H77, 5% FBS, read-out: 1a H77 5% FBS EC50

| Compound | EC50 [1] | EC50 [2] | EC50 [3, 11] | EC50 [3, 12] | EC50 [3, 13] | IC50 [4] | C316Y/1a Fold Resistance [5] | IC50 [6] | IC50 [7] | EC50 [8, 14] | EC50 [8, 15] | EC50 [8, 16] | EC50 [8, 17] | EC50 [9] | EC50 [10] |
| --- | --- | --- | --- | --- | --- | --- | --- | --- | --- | --- | --- | --- | --- | --- | --- |
| CS(=O)(=O)N(CCCN1CCOCC1)c1cc2oc(-c3ccc(F)cc3)c(-c3ncc[nH]3)c2cc1C1CC1 [Example 60, N-[5-cyclopropyl-2-(4-fluorophenyl)-3-(1H-imidazol-2-yl)-1-benzofuran-6-yl]-N-[3-(morpholin-4-yl)propyl]methanesulfonamide] | 79.6 nM | 44.7 nM | 99.5 nM | 8.6 nM | 8.6 nM | 191 nM | 17 fold | 11.2 nM | 20 nM | 20 nM | 152 nM | 20 nM | 20 nM | 64.8 nM | 8.1 nM |
| CS(=O)(=O)N(Cc1cnc(Br)s1)c1cc2oc(-c3ccc(F)cc3)c(-c3ncc[nH]3)c2cc1C1CC1 [Example 67, N-[(2-bromo-1,3-thiazol-5-yl)methyl]-N-[5-cyclopropyl-2-(4-fluorophenyl)-3-(1H-imidazol-2-yl)-1-benzofuran-6-yl]methanesulfonamide] | 77.2 nM | 87.3 nM | 256 nM | 13.9 nM | 13.9 nM | 234 nM | 68 fold | 3.5 nM | 12 nM | 54.3 nM | 1010 nM | 54.3 nM | 54.3 nM | 232 nM | 7.9 nM |
| COCCCN(c1cc2oc(-c3ccc(F)cc3)c(-c3ncc[nH]3)c2cc1C1CC1)S(C)(=O)=O [Example 69, N-[5-cyclopropyl-2-(4-fluorophenyl)-3-(1H-imidazol-2-yl)-1-benzofuran-6-yl]-N-(3-methoxypropyl)methanesulfonamide] | 67.2 nM | 61.1 nM | 59 nM | 6.6 nM | 6.6 nM | 205 nM | 32 fold | 6.5 nM | 29 nM | 13.9 nM | 259 nM | 13.9 nM | 13.9 nM | 82.8 nM | 9.4 nM |
| CCCCCN(c1cc2oc(-c3ccc(F)cc3)c(-c3ncc[nH]3)c2cc1C1CC1)S(C)(=O)=O [Example 70, N-[5-cyclopropyl-2-(4-fluorophenyl)-3-(1H-imidazol-2-yl)-1-benzofuran-6-yl]-N-pentylmethanesulfonamide] | 234 nM | 173 nM | 298 nM | 35.6 nM | 35.6 nM | 69 nM | 8 fold | 8.5 nM | 24 nM | 41.8 nM | 641 nM | 41.8 nM | 41.8 nM | 285 nM | 26.8 nM |
| CCCCCCN(c1cc2oc(-c3ccc(F)cc3)c(-c3ncc[nH]3)c2cc1C1CC1)S(C)(=O)=O [Example 71, N-[5-cyclopropyl-2-(4-fluorophenyl)-3-(1H-imidazol-2-yl)-1-benzofuran-6-yl]-N-hexylmethanesulfonamide] | 377 nM | 409 nM | 1070 nM | 39 nM | 39 nM | 136 nM | 15 fold | 8.9 nM | 28 nM | 65.4 nM | 2290 nM | 65.4 nM | 65.4 nM | 596 nM | 72.5 nM |
